Laboratory results as given in paper PMC10746543, “Design principles for cyclin K molecular glue degraders” (Nature Chemical Biology, 2023).
“And” between values parts separate entries of the source, which are not always exact repeats. Identical values can stand only once.

Legend:
[1] = test system: cyclin K–eGFP degradation reporter; assay: Cyclin K reporter stability analysis (dual-color cyclin K–eGFP reporter); type: cell-based, human; settings: Supplementary Table 2; HEK293T cycK-eGFP reporter, 5 h; read-out: Cellular assays DC50
Protocol: HEK293T–Cas9 cells expressing the cyclin K–eGFP degradation reporter were resuspended at 1 × 10^6 ml^−1 and 50 µl of cell suspension was seeded in non-cell-culture-treated 384-well plates. Shortly after, cells were treated with drug or DMSO for 5 h. […] The fluorescent signal was quantified by flow cytometry (LSRFortessa flow cytometer, BD Biosciences). Using FlowJo (flow cytometry analysis software, BD Biosciences), the geometric mean of the eGFP and mCherry fluorescent signal for round and mCherry-positive cells was calculated. The ratio of eGFP to mCherry was normalized to the average of three DMSO-treated controls.

[2] = test system: HEK293T cells; assay: Drug sensitivity assay (CellTiter-Glo viability) with or without MLN4924 pretreatment; type: cell-based, human; settings: Supplementary Table 2
Protocol: HEK293T–Cas9 cells were resuspended at 0.15 × 10^6 ml^−1 treated with DMSO or 100 nM MLN4924 and plated on 384-well plates. After 2 h, the indicated drugs were dispensed with a D300 digital dispenser (Tecan). After 3 days of drug exposure, cell viability was assessed using the CellTiter-Glo luminescent assay (Promega, G7572) on an CLARIOstar Plus, MARS 3.4 (BMG LabTech). Cell viabilities were calculated relative to DMSO controls.

[3] = biological target: T1, CDK12–cyclin K and DDB1 (Homo sapiens, UniProt Q16531+Q9NYV4, K965R); assay: TR-FRET ternary complex formation assay (compound titration); type: binding; settings: raw replicate titration data
T1 construct: His6–CDK12 (a.a. 713–1,052); full-length or beta-propeller B domain deletion (ΔBPB: a.a. 396–705 deleted) constructs of His6–DDB1ΔBPB, StrepII–Avi–DDB1, or His6–Spy–DDB1; made in house; host or cells: Trichoplusia ni High Five insect cells (baculovirus)
T1 sequence (Q9NYV4 713-1052 K965R): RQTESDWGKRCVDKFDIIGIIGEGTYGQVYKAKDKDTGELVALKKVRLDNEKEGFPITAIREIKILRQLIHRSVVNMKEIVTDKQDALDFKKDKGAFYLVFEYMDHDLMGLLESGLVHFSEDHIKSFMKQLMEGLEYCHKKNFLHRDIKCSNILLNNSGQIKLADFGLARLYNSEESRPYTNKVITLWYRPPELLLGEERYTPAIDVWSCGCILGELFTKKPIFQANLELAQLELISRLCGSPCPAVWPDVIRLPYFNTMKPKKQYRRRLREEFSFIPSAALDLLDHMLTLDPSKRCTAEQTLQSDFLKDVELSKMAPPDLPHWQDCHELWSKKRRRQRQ
T1 sequence (O75909 1-267 partner): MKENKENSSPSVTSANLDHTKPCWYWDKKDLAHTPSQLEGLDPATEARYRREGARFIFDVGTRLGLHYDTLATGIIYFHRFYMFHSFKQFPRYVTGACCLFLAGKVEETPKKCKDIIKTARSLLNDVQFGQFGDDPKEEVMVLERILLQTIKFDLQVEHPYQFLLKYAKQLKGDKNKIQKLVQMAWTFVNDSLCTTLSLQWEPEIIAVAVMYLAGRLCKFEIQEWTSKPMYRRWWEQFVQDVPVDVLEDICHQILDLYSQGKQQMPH
T1 sequence (Q16531 whole entry): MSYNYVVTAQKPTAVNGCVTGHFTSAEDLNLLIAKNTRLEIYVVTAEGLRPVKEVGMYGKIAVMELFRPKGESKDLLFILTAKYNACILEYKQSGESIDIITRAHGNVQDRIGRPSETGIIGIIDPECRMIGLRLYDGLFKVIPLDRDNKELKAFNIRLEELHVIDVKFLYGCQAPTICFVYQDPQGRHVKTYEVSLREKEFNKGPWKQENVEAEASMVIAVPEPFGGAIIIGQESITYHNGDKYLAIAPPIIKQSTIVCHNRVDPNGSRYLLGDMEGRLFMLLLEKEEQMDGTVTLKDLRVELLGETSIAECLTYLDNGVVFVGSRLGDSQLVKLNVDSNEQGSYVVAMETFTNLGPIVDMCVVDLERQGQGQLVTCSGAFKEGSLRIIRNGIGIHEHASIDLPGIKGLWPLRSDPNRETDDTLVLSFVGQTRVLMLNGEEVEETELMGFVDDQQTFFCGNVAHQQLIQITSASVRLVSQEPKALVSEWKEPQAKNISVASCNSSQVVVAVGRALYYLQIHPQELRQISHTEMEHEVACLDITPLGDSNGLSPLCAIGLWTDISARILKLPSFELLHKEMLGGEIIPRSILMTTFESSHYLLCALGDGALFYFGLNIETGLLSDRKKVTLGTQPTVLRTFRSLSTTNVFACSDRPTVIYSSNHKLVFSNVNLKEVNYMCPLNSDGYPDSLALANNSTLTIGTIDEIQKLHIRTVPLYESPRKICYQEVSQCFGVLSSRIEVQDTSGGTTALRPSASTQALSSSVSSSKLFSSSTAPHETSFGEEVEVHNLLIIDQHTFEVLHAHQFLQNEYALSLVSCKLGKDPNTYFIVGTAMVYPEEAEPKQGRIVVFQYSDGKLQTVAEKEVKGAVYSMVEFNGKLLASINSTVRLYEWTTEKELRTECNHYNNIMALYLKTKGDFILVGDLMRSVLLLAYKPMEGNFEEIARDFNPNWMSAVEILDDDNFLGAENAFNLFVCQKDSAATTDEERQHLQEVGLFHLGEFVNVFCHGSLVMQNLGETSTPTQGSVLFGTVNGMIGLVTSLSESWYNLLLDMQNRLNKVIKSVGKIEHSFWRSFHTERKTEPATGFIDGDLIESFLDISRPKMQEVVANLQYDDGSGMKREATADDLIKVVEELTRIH
Excerpt: A 70 μs delay was employed to reduce background fluorescence. The TR-FRET signal was obtained through calculating the ratio of 520 nm to 490 nm fluorescence, and Prism 9 (GraphPad) was used for further data analysis.

SMILES | DC50 [1] | EC50 ([2]; Homo sapiens, HEK-293T, HEK293T viability, 72 h, compound alone, read-out: Cellular assays EC50) | Toxicity rescue ([2]; MLN4924-mediated cytotoxicity rescue, 10 µM used where n.d.) | TR-FRET signal at compound concentration 4.68 nM ([3]; compound concentration 4.68 nM) | TR-FRET signal at compound concentration 21.6 nM ([3]; compound concentration 21.6 nM) | TR-FRET signal at compound concentration 36 nM ([3]; compound concentration 36 nM) | TR-FRET signal at compound concentration 79.2001 nM ([3]; compound concentration 79.2001 nM) | TR-FRET signal at compound concentration 158.4 nM ([3]; compound concentration 158.4 nM) | TR-FRET signal at compound concentration 309.6 nM ([3]; compound concentration 309.6 nM) | TR-FRET signal at compound concentration 626.401 nM ([3]; compound concentration 626.401 nM) | TR-FRET signal at compound concentration 1252.8 nM ([3]; compound concentration 1252.8 nM) | TR-FRET signal at compound concentration 2448 nM ([3]; compound concentration 2448 nM) | TR-FRET signal at compound concentration 9936.01 nM ([3]; compound concentration 9936.01 nM) | TR-FRET signal at compound concentration 20016 nM ([3]; compound concentration 20016 nM)
CC(C)(C)c1cnc(CSc2cnc(NC(=O)C3CCN(CC(=O)NCCOCCOCCOCCNc4cccc5c4C(=O)N(C4CCC(=O)NC4=O)C5=O)CC3)s2)o1 (stereo not drawn) [THAL-SNS032] | < 50 nM | 192 nM | 267% | – | – | – | – | – | – | – | – | – | – | –
CCc1ccc2nc(Nc3cc(Cc4ccccc4)nc(N[C@H]4CC[C@H](O)CC4)n3)sc2c1 [GSK2250665A, reference compound] | > 10000 nM | – | – | 0.2092 and 0.2185 | 0.2003 and 0.2155 | 0.2049 and 0.2158 | 0.208 and 0.2231 | 0.2009 and 0.2135 | 0.2037 and 0.2058 | 0.2061 and 0.2177 | 0.2168 and 0.2226 | 0.212 and 0.232 | 0.2386 and 0.258 | 0.2819 and 0.2859
